# Measured values published in patent US20190054103A1, “METHOD OF TREATMENT OF TP53 WILD-TYPE TUMORS WITH 2',2'-DIFLUORO-5-AZA-2'-DEOXYCYTIDINE OR PRODRUGS THEREOF” (priority 2016, published 2019).
# Where two headings read alike, the source gives them in different places.
# Assays:
# NCI 60 Cell Line Panel = assay: NCI 60 Cell Line Panel, summary by TP53 status (2×2 contingency tables); assay type: cell-based, human
# From the text: (§1) The NCI-60 Cell Line Panel was assembled by the National Cancer Institute as an in vitro anticancer drug screen. The panel comprises human cancer cell lines representing nine different tissues of origin: breast, colon, central nervous system, renal, lung, melanoma, ovarian, prostate, and hematogenous. […] See, e.g., Leroy et al. “Analysis of TP53 Mutation Status in Human Cancer Cell Lines: a Reassesment” Hum Mutat 2014 35(6): 756-765.
# UACC-257 = assay: NCI 60 Cell Line Panel growth inhibition; assay type: cell-based, human; settings: UACC-257, Melanoma, TP53 wild type
# From the text: as §1
# NCI-H226 = assay: NCI 60 Cell Line Panel growth inhibition; assay type: cell-based, human; settings: NCI-H226, Lung-NSCL, TP53 null/mutant
# From the text: as §1
# MOLT-4 = assay: NCI 60 Cell Line Panel growth inhibition; assay type: cell-based, human; settings: MOLT-4, Leukemia, TP53 null/mutant
# From the text: as §1
# SF-295 = assay: NCI 60 Cell Line Panel growth inhibition; assay type: cell-based, human; settings: SF-295, CNS cancer, TP53 null/mutant
# From the text: as §1
# SW-620 = assay: NCI 60 Cell Line Panel growth inhibition; assay type: cell-based, human; settings: SW-620, Colon cancer, TP53 null/mutant
# From the text: as §1
# OVCAR-3 = assay: NCI 60 Cell Line Panel growth inhibition; assay type: cell-based, human; settings: OVCAR-3, Ovarian cancer, TP53 null/mutant
# From the text: as §1
# ACHN = assay: NCI 60 Cell Line Panel growth inhibition; assay type: cell-based, human; settings: Renal cancer, TP53 wild type
# From the text: as §1
# OVCAR-4 = assay: NCI 60 Cell Line Panel growth inhibition; assay type: cell-based, human; settings: OVCAR-4, Ovarian cancer, TP53 null/mutant
# From the text: as §1
# NCI-H460 = assay: NCI 60 Cell Line Panel growth inhibition; assay type: cell-based, human; settings: NCI-H460, Lung-NSCL, TP53 wild type
# From the text: as §1
# SR = assay: NCI 60 Cell Line Panel growth inhibition; assay type: cell-based, human; settings: Leukemia, TP53 wild type
# From the text: as §1
# OVCAR-5 = assay: NCI 60 Cell Line Panel growth inhibition; assay type: cell-based, human; settings: OVCAR-5, Ovarian cancer, TP53 wild type
# From the text: as §1
# RXF 393 = assay: NCI 60 Cell Line Panel growth inhibition; assay type: cell-based, human; settings: RXF 393, Renal cancer, TP53 null/mutant
# From the text: as §1
# [1] = Pharmacokinetics after SC administration of NUC041 in phospholipid gel depot to mice; settings: analyte in plasma following SC administration of NUC041 (100 mg/kg) to mice
# in vivo = settings: nude, mouse, iv
# [2] = test system: HL-60 (leukemia, TP null); settings: HL-60 nude mice
# [3] = test system: TP53 WT colon cancer cell line LoVo; assay: CellTiter-Glo growth inhibition, LoVo; assay type: cell-based; settings: Homo sapiens, 72-hour exposure, FIG. 2
# Procedure: Two examples of additional comparisons are provided below for colon cancer cell lines (TP53 WT colon cancer cell line Ls174T and TP53 WT colon cancer cell line LoVo).
# In these assays, two 96 well plates of each cell line were seeded with 5,000 cells per well in a total volume of […] per well and left incubating overnight. The following day, the cells were exposed to different concentrations of NUC013. At the end of a 72-hour exposure period, the plates were removed for CellTiter-Glo® assay. Luminescence was recorded on a Synergy 4.0.
# CFPAC-1 = assay: Growth inhibition of pancreatic cancer cell line CFPAC-1; assay type: cell-based; settings: Homo sapiens
# HeLa cells = assay: Nucleotide concentrations in HeLa cell extracts by HPLC (RNR inhibition); assay type: cell-based; settings: 50 μM, 16 h incubation
# From the text: The more common approach is to synthesize a nucleoside diphosphate and then determine whether it inhibits RNR or p53R2. […] Nucleic Acids Research. […] The other approach is to expose cells in tissue culture to the drug and then attempt to determine whether deoxynucleotide synthesis is inhibited when compared to control cells. Measurement of deoxynucleotides may be done by radioimmunoassay or by HPLC. The disadvantage of a radioimmunoassay is that it can only measure a single deoxynucleotide triphosphate (dNTP) at a time and typically requires a tritiated nucleotide, but it is the preferred method for measuring dCTP [Piall E M, Aherne G W, Marks V. The quantitative determination of 2′-deoxycytidine-5′ triphosphate in cell extracts by radioimmunoassay. Anal Biochem. 1986; 154(1):276-281 incorporated herein by reference in its entirety]. On the other hand, HPLC can measure multiple nucleotides without requiring radiolabeling, but has been noted to quantitate poorly dC nucleotides, possibly as an artifact of an influx of dCTP from the medium [Bianchi V, Pontis E, Reichard P. Changes of deoxyribonucleoside triphosphate pools induced by hydroxyurea and their relation to DNA synthesis. J Biol Chem. 1986; 261(34): 16037-16042 incorporated herein by reference in its entirety]. This approach was used to determine RNR inhibition by NUC013.
# Briefly, HeLa cells ([…]) were grown in the presence or absence of drug, in this case gemcitabine or NUC013. At the end of a 16 h incubation, the medium was aspirated, cells monolayers washed twice with PBS, and used for nucleotide extraction. The nucleotides were extracted from cell monolayers by the addition of ice-cold 80% acetonitrile (ACN) for 1 h. The extracts were centrifuged to remove cellular debris and loaded on a SAX column (100 mg, Supelco) pre-conditioned with methanol, water and ACN. Once the sample was completely effused, the cartridge was washed with 3 ml 80% ACN and 3 ml water and eluted with 1M KCl. The eluent was filtered through a 0.45 μm filter membrane (Roth) and analyzed by HPLC. Peak identification of the different nucleoside mono-, di-, and triphosphates, was made from their characteristic UV absorption spectra and retention times compared with those of a mixture of standards run immediately before cell extracts. The area of individual peaks was measured using ChemStation software (Agilent).
# [4] = TP53 (WT) cell lines of NCI 60 cell panel
# [5] = TP53 (null/mutant) cell lines of NCI 60 cell panel
compound,measurement,setting,value
"Nc1ncn([C@@H]2O[C@H](CO)[C@@H](O)C2(F)F)c(=O)n1 [NUC013, 4-amino-1-((2R,4R,5R)-3,3-difluoro-4-hydroxy-5-(hydroxymethyl)tetrahydrofuran-2-yl)-1,3,5-triazin-2(1H)-one]",inhibition at 10 µM,"NCI 60 Cell Line Panel; Homo sapiens, 60 cell, 10 μM, read-out: Inhibition of growth of hematogenous tumor cell lines",> 50%
same,Number of cell lines with >50% growth inhibition at 10 μM,NCI 60 Cell Line Panel; [4],11
same,Number of cell lines with ≤50% growth inhibition at 10 μM,NCI 60 Cell Line Panel; [4],4
same,Number of cell lines with >50% growth inhibition at 10 μM,NCI 60 Cell Line Panel; [5],13
same,Number of cell lines with ≤50% growth inhibition at 10 μM,NCI 60 Cell Line Panel; [5],27
same,Growth (%) at 10 μM,UACC-257,77.54%
same,Growth (%) at 10 μM,NCI-H226,52.34%
same,Growth (%) at 10 μM,MOLT-4,35.63%
same,Growth (%) at 10 μM,SF-295,77.93%
same,Growth (%) at 10 μM,SW-620,51.21%
same,Growth (%) at 10 μM,OVCAR-3,70.56%
same,Growth (%) at 10 μM,ACHN,7.28%
same,Growth (%) at 10 μM,OVCAR-4,94.88%
same,Growth (%) at 10 μM,NCI-H460,9.34%
same,Growth (%) at 10 μM,SR,14.99%
same,Growth (%) at 10 μM,OVCAR-5,86.95%
same,Growth (%) at 10 μM,RXF 393,44.97%
same,AUClast (area under the plasma concentration versus time curve from 0 to last quantifiable sampling time),[1],1939 ng·h/mL
same,MTD at 3 weeks,in vivo,> 120 mg/kg
same,animals removed from the study for death or moribund,[2]; 5.8 mg/kg,no animals removed from the study for death or moribund
same,tumor weights vs saline control,[2]; 5.8 mg/kg,not significantly different
same,"hazard ratio (HR) vs saline control (death, ulcerated tumor or tumor >4 g)",[2]; 5.8 mg/kg (equimolar to decitabine 5 mg/kg),0.46
same,"hazard ratio (HR) vs saline control (death, ulcerated tumor or tumor >4 g)",[2]; 20 mg/kg,0.26
same,tumor volume vs saline control,"[2]; 20 mg/kg, study days 18 through 28, FIG. 3A",significant decreases
same,GI50,[3],3 µM
same,GI50,CFPAC-1,53.8 µM
same,ADP,HeLa cells,"13,845"
same,ATP,HeLa cells,"21,335"
same,CTP,HeLa cells,"1,279"
same,GTP,HeLa cells,"2,006"
same,UTP,HeLa cells,"4,070"
same,"dATP, peak area, AU",HeLa cells,10.2 AU
same,"dGDP, peak area, AU",HeLa cells,5.6 AU
same,"dTDP, peak area, AU",HeLa cells,18.65 AU
same,"dUTP, peak area, AU",HeLa cells,8.8 AU
